Measured values reported in patent publication US6372747B1, “Farnesyl protein transferase inhibitors” (Schering Corporation, priority 1998, dated 2002).

Tests used:
[1] = tested on: Human tumor cells; experiment: Soft Agar Assay (anchorage-independent growth); format: cell-based; conditions: Homo sapiens, range stated for the group unless single
Method: Anchorage-independent growth is a characteristic of tumorigenic cell lines. Human tumor cells can be suspended in growth medium containing 0.3% agarose and an indicated concentration of a farnesyl transferase inhibitor. The solution can be overlayed onto growth medium solidified with 0.6% agarose containing the same concentration of farnesyl transferase inhibitor as the top layer. After the top layer is solidified, plates can be incubated for 10-16 days at 37° C. under 5% CO2 to allow colony outgrowth. After incubation, the colonies can be stained by overlaying the agar with a solution of MTT (3-[4,5-dimethyl-thiazol-2-yl]-2,5-diphenyltetrazolium bromide, Thiazolyl blue) (1 mg/mL in PBS). Colonies can be counted and the IC50's can be determined.

Row | SMILES | melting point [°C] | IC50 [1] [nM]
1 | CC(C)(CCNC(=O)[C@H]1CN(C2c3ccc(Cl)cc3CCc3cc(Br)cnc32)CCN1S(C)(=O)=O)n1ccnc1 (mixture of isomers) [Example 15] | 107 to 110 | 
2 | CCOC(=O)N1CCC([C@H]2c3ccc(Cl)cc3CCc3cc(Br)cnc32)CC1C(=O)N(CCCn1ccnc1)Cc1ccccc1 (single isomer, unassigned) [80 (Isomer A)] |  | 2 to 300
3 | Cn1cncc1CCNC(=O)[C@H]1CN(C2c3ccc(Cl)cc3CCc3cc(Br)cnc32)CCN1C(=O)NC(C)(C)C (single isomer, unassigned) [Example 28] | 128.1 to 135.2 | 
4 | CC(C)OC(=O)N1CCN(C2c3ccc(Cl)cc3CCc3cc(Br)cnc32)C[C@@H]1C(=O)NCCc1cncn1C (single isomer, unassigned) [Example 30] | 120.3 to 126.1 | 
5 | Cn1cncc1CCNC(=O)[C@H]1CN(C2c3ccc(Cl)cc3CCc3cc(Br)cnc32)CCN1C(=O)N1CCOCC1 (single isomer, unassigned) [Example 31] | 136.4 to 138.6 | 
6 | Cn1cncc1CCNC(=O)[C@H]1CN(C2c3ccc(Cl)cc3CCc3cc(Br)cnc32)CCN1C(=O)OC(C)(C)C (single isomer, unassigned) [Example 32] | 134.9 to 137.5 | 
7 | Cn1cncc1CCNC(=O)[C@H]1CN(C2c3ccc(Cl)cc3CCc3cc(Br)cnc32)CCN1S(C)(=O)=O (single isomer, unassigned) [Example 33] | 139 to 145.1 | 
8 | Cn1cncc1CCNC(=O)[C@H]1CN(C2c3ccc(Cl)cc3CCc3cc(Br)cnc32)CCN1C(=O)c1ccc(F)cc1 (single isomer, unassigned) [Example 34] | 144.9 to 148.7 | 
9 | Cn1cncc1CCNC(=O)[C@H]1CN(C2c3ccc(Cl)cc3CCc3cc(Br)cnc32)CCN1C(=O)Cc1ccc(F)cc1 (single isomer, unassigned) [Example 35] | 132.5 to 139.7 | 
10 | Cn1cncc1CCNC(=O)[C@H]1CN(C2c3ccc(Cl)cc3CCc3cc(Br)cnc32)CCN1C(=O)Cc1cc[n+]([O-])cc1 (single isomer, unassigned) [Example 36] | 168.9 to 172.3 | 
11 | Cn1cncc1CCNC(=O)[C@H]1CN(C2c3ccc(Cl)cc3CCc3cc(Br)cnc32)CCN1C(=O)CC1CCN(C(=O)OC(C)(C)C)CC1 (single isomer, unassigned) [Example 37] | 141.7 to 143.2 | 
12 | Cn1cncc1CCNC(=O)[C@H]1CN(C2c3ccc(Cl)cc3CCc3cc(Br)cnc32)CCN1C(=O)CC1CCNCC1 (single isomer, unassigned) [Example 38] | 136.1 to 139.5 | 
13 | Cn1cncc1CCNC(=O)[C@H]1CN(C2c3ccc(Cl)cc3CCc3cc(Br)cnc32)CCN1C(=O)CC1CCN(C(N)=O)CC1 (single isomer, unassigned) [Example 39] | 148.1 to 150.4 | 
14 | Cn1cncc1CCN(Cc1ccccc1)C(=O)[C@H]1CN(C2c3ccc(Cl)cc3CCc3cc(Br)cnc32)CCN1C(=O)NC(C)(C)C (single isomer, unassigned) [Example 61] | 127 to 130 | 
15 | Cn1cncc1CCN(Cc1ccccc1)C(=O)[C@H]1CN(C2c3ccc(Cl)cc3CCc3cccnc32)CCN1C(=O)OC(C)(C)C (single isomer, unassigned) [Example 62] | 93.1 to 99.8 | 
16 | CC(C)(CCNC(=O)[C@H]1CN(C2c3ccc(Cl)cc3CCc3cc(Br)cnc32)CCN1C(=O)OCc1ccccc1)n1ccnc1 (some centres unmarked) [Example 3] | 103 to 106 | 

Row | SMILES | melting point [°C] | IC50 [1] [nM]
17 | CC(C)(CCNC(=O)[C@H]1CN([C@H]2c3ccc(Cl)cc3CCc3cc(Br)cnc32)CCN1C(=O)Cc1cc[n+]([O-])cc1)n1ccnc1 [Example 6] | 115 to 117 | 
18 | CC(C)(CCNC(=O)[C@H]1CN([C@@H]2c3ccc(Cl)cc3CCc3cc(Br)cnc32)CCN1C(=O)CC1CCN(C(N)=O)CC1)n1ccnc1 [Example 9] | 150 to 153 | 
19 | CC(C)(C)NC(=O)N1CCN([C@H]2c3ccc(Cl)cc3CCc3cc(Br)cnc32)C[C@@H]1C(=O)NCCC(C)(C)n1ccnc1 [Example 10] | 139 to 142 | 
20 | CC(C)(C)NC(=O)N1CCN([C@H]2c3ccc(Cl)cc3CCc3cc(Br)cnc32)C[C@@H]1C(=O)NCCC1(n2ccnc2)CC1 [Example 12] | 136 to 139 | 
21 | CC(C)(C)NC(=O)N1CCN([C@@H]2c3ccc(Cl)cc3CCc3cc(Br)cnc32)C[C@@H]1C(=O)NCCC1(n2ccnc2)CC1 [Example 13] | 106 to 110 | 
22 | CN(C)C(=O)N1CCN(C2c3ccc(Cl)cc3CCc3cc(Br)cnc32)CC1C(=O)NCCC(C)(C)n1ccnc1 (centres unmarked) [Example 18] | 139 to 142 | 
23 | CCn1cncc1CCNC(=O)[C@H]1CN(C2c3ccc(Cl)cc3CCc3cc(Br)cnc32)CCN1C(=O)OC(C)(C)C (some centres unmarked) [Example 40] | 54 to 58 | 
24 | CCCn1cncc1CCNC(=O)C1CN(C2c3ccc(Cl)cc3CCc3cc(Br)cnc32)CCN1C(=O)OC(C)(C)C (centres unmarked) [Example 41] | 116 to 123 | 
25 | CC(C)n1cncc1CCNC(=O)[C@H]1CN(C2c3ccc(Cl)cc3CCc3cc(Br)cnc32)CCN1C(=O)OC(C)(C)C (some centres unmarked) [Example 42] | 98 to 101 | 
26 | CC(C)Cn1cncc1CCNC(=O)[C@H]1CN(C2c3ccc(Cl)cc3CCc3cc(Br)cnc32)CCN1C(=O)OC(C)(C)C (some centres unmarked) [Example 43] | 120 to 122 | 
27 | CC(C)(C)OC(=O)N1CCN(C2c3ccc(Cl)cc3CCc3cc(Br)cnc32)C[C@@H]1C(=O)NCCc1cncn1CCc1ccccc1 (some centres unmarked) [Example 44] | 101 to 103 | 
28 | CCn1cncc1CCN(CC1CC1)C(=O)[C@H]1CN(C2c3ccc(Cl)cc3CCc3cc(Br)cnc32)CCN1C(=O)OC(C)(C)C (some centres unmarked) [Example 304] | 103.7 to 107.5 | 
29 | Cn1cncc1CCN(CC1CC1)C(=O)[C@H]1CN([C@H]2c3ccc(Cl)cc3CCc3cccnc32)CCN1C(=O)OC(C)(C)C [Example 306] | 100 to 114 | 
30 | CCn1cncc1CCN(CC1CC1)C(=O)[C@H]1CN([C@H]2c3ccc(Cl)cc3CCc3cccnc32)CCN1C(=O)OC(C)(C)C [Example 307] | 89.1 to 96.5 | 
31 | CCn1cncc1CCN(CC1CC1)C(=O)[C@H]1CN([C@@H]2c3ccc(Cl)cc3CCc3cccnc32)CCN1C(=O)OC(C)(C)C [Example 308] | 89.1 to 96.5 | 
32 | Cc1cn(CCCN(Cc2ccccc2)C(=O)[C@H]2CN(C3c4ccccc4CCc4cc(Cl)cnc43)CCN2C(=O)OC2CCCCC2)cn1 (some centres unmarked) [Example 395] | 91 to 107 | 

Results, then the compound that gave them:

Row | melting point [°C] | IC50 [1] [nM] | SMILES
33 | 140.1 to 149.4 |  | Cn1cncc1CCNC(=O)[C@H]1CN(C2c3ccc(Cl)cc3CCc3cc(Br)cnc32)CCN1C(=O)Nc1ccc(F)cc1 (single isomer, unassigned) [Example 27]
34 | 128.1 to 133.4 |  | CC(C)NC(=O)N1CCN(C2c3ccc(Cl)cc3CCc3cc(Br)cnc32)C[C@@H]1C(=O)NCCc1cncn1C (single isomer, unassigned) [Example 29]
35 | 130 to 139 |  | Cn1cncc1CCN(Cc1ccccc1)C(=O)[C@H]1CN(C2c3ccc(Cl)cc3CCc3cc(Br)cnc32)CCN1C(=O)NC1CCCCC1 (single isomer, unassigned) [Example 60]
36 | 138 to 140 |  | O=C(NCCC(c1ccc(Cl)cc1)n1ccnc1)[C@H]1CN(C2c3ccc(Cl)cc3CCc3cc(Br)cnc32)CCN1C(=O)NC1CCCCC1 (some centres unmarked) [Example 5]
37 | 133 to 139 |  | CC(C)NC(=O)N1CCN(C2c3ccc(Cl)cc3CCc3cc(Br)cnc32)CC1C(=O)NCCC1(n2ccnc2)CC1 (centres unmarked) [Example 14]
38 | 133 to 138 |  | CC(CCNC(=O)[C@H]1CN(C2c3ccc(Cl)cc3CCc3cc(Br)cnc32)CCN1C(=O)NC1CCCCC1)n1ccnc1 (some centres unmarked) [Example 19]
39 | 150 to 154 |  | CC(C)(CNC(=O)[C@H]1CN(C2c3ccc(Cl)cc3CCc3cc(Br)cnc32)CCN1C(=O)NC1CCCCC1)c1cnc[nH]1 (some centres unmarked) [Example 21]
40 | 156 to 158 |  | O=C(NCC1(c2cnc[nH]2)CC1)[C@H]1CN(C2c3ccc(Cl)cc3CCc3cc(Br)cnc32)CCN1C(=O)NC1CCCCC1 (some centres unmarked) [Example 22]
41 | 164 to 167 |  | NC(=O)[C@H](Cc1cn(C(=O)NC2CCCCC2)cn1)NC(=O)[C@H]1CN(C2c3ccc(Cl)cc3CCc3cc(Br)cnc32)CCN1C(=O)NC1CCCCC1 (some centres unmarked) [Example 24]
42 | 111.8 to 114.5 |  | Cn1cncc1CCNC(=O)[C@H]1CN(C2c3ccc(Cl)cc3CCc3cc(Br)cnc32)CCN1C(=O)OCc1ccccc1 (some centres unmarked) [Example 26]
43 | 118.4 |  | CN(CCCn1ccnc1)C(=O)[C@H]1CN(C2c3ccc(Cl)cc3CCc3cc(Br)cnc32)CCN1C(=O)NC1CCCCC1 (some centres unmarked) [Example 110]
44 | 79.3 |  | CCN(CCCn1ccnc1)C(=O)[C@H]1CN(C2c3ccc(Cl)cc3CCc3cc(Br)cnc32)CCN1C(=O)NC1CCCCC1 (some centres unmarked) [Example 111]
45 | 63.8 to 67.4 |  | CCCN(CCCn1ccnc1)C(=O)[C@H]1CN(C2c3ccc(Cl)cc3CCc3cc(Br)cnc32)CCN1C(=O)NC1CCCCC1 (some centres unmarked) [Example 112]
46 | 132 to 135 |  | O=C(NCCn1nc2ccccc2n1)[C@H]1CN(C2c3ccc(Cl)cc3CCc3cc(Br)cnc32)CCN1C(=O)NC1CCCCC1 (some centres unmarked) [Example 291]
47 | 127 to 132 |  | O=C(NCCn1nnc2ccccc21)[C@H]1CN(C2c3ccc(Cl)cc3CCc3cc(Br)cnc32)CCN1C(=O)NC1CCCCC1 (some centres unmarked) [Example 292]
48 | 173.8 |  | O=C(NCCc1cnc(C(F)(F)F)[nH]1)[C@H]1CN(C2c3ccc(Cl)cc3CCc3cc(Br)cnc32)CCN1C(=O)NC1CCCCC1 (some centres unmarked) [Example 294]
49 | 141.2 |  | O=C(NCCCn1ccnc1CO)[C@H]1CN(C2c3ccc(Cl)cc3CCc3cc(Br)cnc32)CCN1C(=O)NC1CCCCC1 (some centres unmarked) [Example 296]
50 | 182.1 to 219.4 |  | O=C(NCCc1cnc(O)[nH]1)[C@H]1CN(C2c3ccc(Cl)cc3CCc3cc(Br)cnc32)CCN1C(=O)NC1CCCCC1 (some centres unmarked) [Example 297]
